US10004701B2, “Methods and compositions for treating infection” (UNIVERSITY OF ROCHESTER, priority 2012, dated 2018)
Where a name gives a salt, the structure may show the parent alone. Read-outs that look alike come from different tables or passages of the source.

Experiments:
Experiment in all cases: AK assay 384-well format, Prestwick library screening
P. aeruginosa = assay type: cell-based, Pseudomonas aeruginosa; conditions: for fold induction at 50 µM: Pseudomonas aeruginosa, 3 h
E. faecium = assay type: cell-based, Enterococcus faecium; conditions: for fold induction at 50 µM: Enterococcus faecium, 3 h
K. pneumoniae = assay type: cell-based, Klebsiella pneumoniae; conditions: for fold induction at 50 µM: Klebsiella pneumoniae, 3 h
E. cloacae = assay type: cell-based, Enterobacter cloacae; conditions: for fold induction at 50 µM: Enterobacter cloacae, 3 h
E. coli = assay type: cell-based, Escherichia coli; conditions: for fold induction at 50 µM: Escherichia coli, 3 h
[1] = tested on: S. aureus strain USA300-0114; assay type: cell-based, Staphylococcus aureus; conditions: for fold induction at 50 µM: Staphylococcus aureus, USA300, 3 h
[2] = tested on: A. baumannii strain 98-37-09; assay type: cell-based, Acinetobacter baumannii; conditions: for fold induction at 50 µM: Acinetobacter baumannii, 983709, 3 h
[3] = 50 μM final drug concentration, 384-well format, cutoff for positive-scoring molecules 3-fold increase, read-out: AK-based Prestwick Library Screening Results, P. aeruginosa (increase in extracellular AK activity)
[4] = 50 μM final drug concentration, 384-well format, cutoff for positive-scoring molecules 3-fold increase, read-out: AK-based Prestwick Library Screening Results, E. faecium (increase in extracellular AK activity)
[5] = 50 μM final drug concentration, 384-well format, cutoff for positive-scoring molecules 3-fold increase, read-out: AK-based Prestwick Library Screening Results, K. pneumoniae (increase in extracellular AK activity)
[6] = 50 μM final drug concentration, 384-well format, cutoff for positive-scoring molecules 3-fold increase, read-out: AK-based Prestwick Library Screening Results, E. cloacae (increase in extracellular AK activity)
[7] = 50 μM final drug concentration, 384-well format, cutoff for positive-scoring molecules 3-fold increase, read-out: AK-based Prestwick Library Screening Results, E. coli (increase in extracellular AK activity)
[8] = 50 μM final drug concentration, 384-well format, cutoff for positive-scoring molecules 3-fold increase, read-out: AK-based Prestwick Library Screening Results, S. aureus (increase in extracellular AK activity)
[9] = 50 μM final drug concentration, 384-well format, cutoff for positive-scoring molecules 3-fold increase, read-out: AK-based Prestwick Library Screening Results, A. baumannii (increase in extracellular AK activity)

## CCC(=O)OCC(=O)[C@@]1(OC(=O)CC)[C@H](C)C[C@H]2[C@H]3[C@H]([C@@H](O)C[C@@]21C)[C@@]1(C)C=CC(=O)C=C1C[C@H]3Cl [Alclometasone dipropionate]
P. aeruginosa; 50 μM final drug concentration, […], read-out: AK-based Prestwick Library Screening Results, P. aeruginosa (fold increase in extracellular AK activity)
  fold induction at 50 µM: 1
E. faecium; 50 μM final drug concentration, […], read-out: AK-based Prestwick Library Screening Results, E. faecium (fold increase in extracellular AK activity)
  fold induction at 50 µM: 1
K. pneumoniae; 50 μM final drug concentration, […], read-out: AK-based Prestwick Library Screening Results, K. pneumoniae (fold increase in extracellular AK activity)
  fold induction at 50 µM: 1.1
E. cloacae; 50 μM final drug concentration, […], read-out: AK-based Prestwick Library Screening Results, E. cloacae (fold increase in extracellular AK activity)
  fold induction at 50 µM: 1.2
E. coli; 50 μM final drug concentration, […], read-out: AK-based Prestwick Library Screening Results, E. coli (fold increase in extracellular AK activity)
  fold induction at 50 µM: 1.1
[1]; 50 μM final drug concentration, […], read-out: AK-based Prestwick Library Screening Results, S. aureus (fold increase in extracellular AK activity)
  fold induction at 50 µM: 1.1
[2]; 50 μM final drug concentration, […], read-out: AK-based Prestwick Library Screening Results, A. baumannii (fold increase in extracellular AK activity)
  fold induction at 50 µM: 0.9

## C=CC[N@@+]12CC[C@@]34c5ccccc5N5/C=C6/[C@H]7C[C@H]8[C@@]9(CC[N@@+]8(CC=C)C/C7=C/CO)c7ccccc7N(/C=C(/[C@@H](C[C@@H]31)/C(=C\CO)C2)[C@H]54)[C@@H]69.[Cl-].[Cl-] [Alcuronium chloride]
P. aeruginosa; planktonic P. aeruginosa, 50 μM final drug concentration, […]
  AK-based Prestwick library screening result, P. aeruginosa (fold increase in extracellular AK activity): 1.0
E. faecium; planktonic E. faecium, 50 μM final drug concentration, […]
  AK-based Prestwick library screening result, E. faecium (fold increase in extracellular AK activity): 1.0
K. pneumoniae; planktonic K. pneumoniae, 50 μM final drug concentration, […]
  AK-based Prestwick library screening result, K. pneumoniae (fold increase in extracellular AK activity): 1.0
E. cloacae; planktonic E. cloacae, 50 μM final drug concentration, […]
  AK-based Prestwick library screening result, E. cloacae (fold increase in extracellular AK activity): 2.2
E. coli; planktonic E. coli, 50 μM final drug concentration, […]
  AK-based Prestwick library screening result, E. coli (fold increase in extracellular AK activity): 1.4
[1]; planktonic S. aureus, 50 μM final drug concentration, […]
  AK-based Prestwick library screening result, S. aureus (fold increase in extracellular AK activity): 1.2
[2]; planktonic A. baumannii, 50 μM final drug concentration, […]
  AK-based Prestwick library screening result, A. baumannii (fold increase in extracellular AK activity): 1.4

## CC(=O)OCC(=O)[C@H]1CC[C@H]2[C@@H]3CC[C@H]4C[C@H](O)CC[C@]4(C)[C@H]3C(=O)C[C@]12C [Alfadolone acetate]
P. aeruginosa; planktonic P. aeruginosa, 50 μM final drug concentration, […], read-out: AK-based Prestwick library screening result, P. aeruginosa (fold increase in extracellular AK activity)
  fold induction at 50 µM: 1
E. faecium; planktonic E. faecium, 50 μM final drug concentration, […], read-out: AK-based Prestwick library screening result, E. faecium (fold increase in extracellular AK activity)
  fold induction at 50 µM: 1.1
K. pneumoniae; planktonic K. pneumoniae, 50 μM final drug concentration, […], read-out: AK-based Prestwick library screening result, K. pneumoniae (fold increase in extracellular AK activity)
  fold induction at 50 µM: 0.9
E. cloacae; planktonic E. cloacae, 50 μM final drug concentration, […], read-out: AK-based Prestwick library screening result, E. cloacae (fold increase in extracellular AK activity)
  fold induction at 50 µM: 1.4
E. coli; planktonic E. coli, 50 μM final drug concentration, […], read-out: AK-based Prestwick library screening result, E. coli (fold increase in extracellular AK activity)
  fold induction at 50 µM: 1.2
[1]; planktonic S. aureus, 50 μM final drug concentration, […], read-out: AK-based Prestwick library screening result, S. aureus (fold increase in extracellular AK activity)
  fold induction at 50 µM: 1
[2]; planktonic A. baumannii, 50 μM final drug concentration, […], read-out: AK-based Prestwick library screening result, A. baumannii (fold increase in extracellular AK activity)
  fold induction at 50 µM: 1

## CC(=O)[C@H]1CC[C@H]2[C@@H]3CC[C@H]4C[C@H](O)CC[C@]4(C)[C@H]3C(=O)C[C@]12C [Alfaxalone]
P. aeruginosa; read-out: AK-based Prestwick library screening result, P. aeruginosa (fold increase in extracellular AK activity)
  fold induction at 50 µM: 1.2
E. faecium; read-out: AK-based Prestwick library screening result, E. faecium (fold increase in extracellular AK activity)
  fold induction at 50 µM: 1.1
K. pneumoniae; read-out: AK-based Prestwick library screening result, K. pneumoniae (fold increase in extracellular AK activity)
  fold induction at 50 µM: 1
E. cloacae; read-out: AK-based Prestwick library screening result, E. cloacae (fold increase in extracellular AK activity)
  fold induction at 50 µM: 1.7
E. coli; read-out: AK-based Prestwick library screening result, E. coli (fold increase in extracellular AK activity)
  fold induction at 50 µM: 1.2
[1]; read-out: AK-based Prestwick library screening result, S. aureus (fold increase in extracellular AK activity)
  fold induction at 50 µM: 1.2
[2]; read-out: AK-based Prestwick library screening result, A. baumannii (fold increase in extracellular AK activity)
  fold induction at 50 µM: 1

## COc1cc2nc(N(C)CCCNC(=O)C3CCCO3)nc(N)c2cc1OC (centres unmarked) [Alfuzosin hydrochloride]
P. aeruginosa; planktonic P. aeruginosa, 50 μM final drug concentration, 384-well, cutoff for positive-scoring molecules 3-fold increase, read-out: AK-based Prestwick Library Screening Results: P. aeruginosa (increase in extracellular AK activity)
  fold induction at 50 µM: 0.4
E. faecium; planktonic E. faecium, 50 μM final drug concentration, 384-well, cutoff for positive-scoring molecules 3-fold increase, read-out: AK-based Prestwick Library Screening Results: E. faecium (increase in extracellular AK activity)
  fold induction at 50 µM: 0.9
K. pneumoniae; planktonic K. pneumoniae, 50 μM final drug concentration, 384-well, cutoff for positive-scoring molecules 3-fold increase, read-out: AK-based Prestwick Library Screening Results: K. pneumoniae (increase in extracellular AK activity)
  fold induction at 50 µM: 0.4
E. cloacae; planktonic E. cloacae, 50 μM final drug concentration, 384-well, cutoff for positive-scoring molecules 3-fold increase, read-out: AK-based Prestwick Library Screening Results: E. cloacae (increase in extracellular AK activity)
  fold induction at 50 µM: 0.4
E. coli; planktonic E. coli, 50 μM final drug concentration, 384-well, cutoff for positive-scoring molecules 3-fold increase, read-out: AK-based Prestwick Library Screening Results: E. coli (increase in extracellular AK activity)
  fold induction at 50 µM: 0.5
[1]; planktonic S. aureus, 50 μM final drug concentration, 384-well, cutoff for positive-scoring molecules 3-fold increase, read-out: AK-based Prestwick Library Screening Results: S. aureus (increase in extracellular AK activity)
  fold induction at 50 µM: 0.3
[2]; planktonic A. baumannii, 50 μM final drug concentration, 384-well, cutoff for positive-scoring molecules 3-fold increase, read-out: AK-based Prestwick Library Screening Results: A. baumannii (increase in extracellular AK activity)
  fold induction at 50 µM: 0.4

## C=CCN1CCCC1CNC(=O)c1cc2[nH]nnc2cc1OC (centres unmarked) [Alizapride HCl]
P. aeruginosa; 50 μM final drug concentration, planktonic, cutoff for positive 3-fold increase, read-out: AK-based Prestwick Library Screening Results, P. aeruginosa (fold increase in extracellular AK activity)
  fold induction at 50 µM: 1.1
E. faecium; 50 μM final drug concentration, planktonic, cutoff for positive 3-fold increase, read-out: AK-based Prestwick Library Screening Results, E. faecium (fold increase in extracellular AK activity)
  fold induction at 50 µM: 1
K. pneumoniae; 50 μM final drug concentration, planktonic, cutoff for positive 3-fold increase, read-out: AK-based Prestwick Library Screening Results, K. pneumoniae (fold increase in extracellular AK activity)
  fold induction at 50 µM: 0.9
E. cloacae; 50 μM final drug concentration, planktonic, cutoff for positive 3-fold increase, read-out: AK-based Prestwick Library Screening Results, E. cloacae (fold increase in extracellular AK activity)
  fold induction at 50 µM: 1.4
E. coli; 50 μM final drug concentration, planktonic, cutoff for positive 3-fold increase, read-out: AK-based Prestwick Library Screening Results, E. coli (fold increase in extracellular AK activity)
  fold induction at 50 µM: 1
[1]; 50 μM final drug concentration, planktonic, cutoff for positive 3-fold increase, read-out: AK-based Prestwick Library Screening Results, S. aureus (fold increase in extracellular AK activity)
  fold induction at 50 µM: 1
[2]; 50 μM final drug concentration, planktonic, cutoff for positive 3-fold increase, read-out: AK-based Prestwick Library Screening Results, A. baumannii (fold increase in extracellular AK activity)
  fold induction at 50 µM: 1.1

## NC(=O)NC1NC(=O)NC1=O (centres unmarked) [Allantoin]
P. aeruginosa; [3]
  fold induction at 50 µM: 0.3
E. faecium; [4]
  fold induction at 50 µM: 0.7
K. pneumoniae; [5]
  fold induction at 50 µM: 0.4
E. cloacae; [6]
  fold induction at 50 µM: 0.3
E. coli; [7]
  fold induction at 50 µM: 0.4
[1]; [8]
  fold induction at 50 µM: 1.4
[2]; [9]
  fold induction at 50 µM: 0.4

## C=CCc1ccccc1OCC(O)CNC(C)C (centres unmarked) [Alprenolol hydrochloride]
P. aeruginosa; [3]
  fold induction at 50 µM: 0.5
E. faecium; [4]
  fold induction at 50 µM: 0.9
K. pneumoniae; [5]
  fold induction at 50 µM: 0.5
E. cloacae; [6]
  fold induction at 50 µM: 0.4
E. coli; [7]
  fold induction at 50 µM: 0.6
[1]; [8]
  fold induction at 50 µM: 0.6
[2]; [9]
  fold induction at 50 µM: 0.7
